In ChEMBL document CHEMBL1147316, “Turbinaric acid, a cytotoxic secosqualene carboxylic acid from the brown alga Turbinaria ornata” (J Nat Prod, 1989) one finds Activity data, which are given here for 1 compound.

One assay has as its system Melanoma tumor cell line. The assay is described as follows: Cytotoxicity against mouse melanoma cells at 26.6 ug/mL. Type of assay: functional, cell-based.
A further assay has as its system Cancer cell lines. Briefly: Cytotoxicity against human colon cancer cells at 12.5 ug/mL. The format is functional, cell-based.

Molecules are shown by their SMILES. Calls of active or inactive are those of the source. The calls are words filed in the database; no cut-off is given here.

Take `CC(C)=CCC/C(C)=C/CC/C(C)=C/CC/C=C(\C)CC/C=C(\C)CCC(=O)O`: the result in the assay on Melanoma tumor cell line and in the assay on Cancer cell lines was Active.
